Measured values taken from ChEMBL document CHEMBL3714712, “Thieno [2,3-c]pyrazoles for use as potassium channel inhibitors” (2013).

target: T1, Kir3.1/Kir3.4 (Rattus norvegicus, UniProt P48548+P63251); assay: Inhibition of rat Kir3.1/Kir3.4 expressed in HEK293 cells assessed as reduction in depolarizing voltage step-induced recombinant G-protein activated inward rectifier current by whole cell patch clamp assay; format: cell-based
T1 sequence (P63251 whole entry): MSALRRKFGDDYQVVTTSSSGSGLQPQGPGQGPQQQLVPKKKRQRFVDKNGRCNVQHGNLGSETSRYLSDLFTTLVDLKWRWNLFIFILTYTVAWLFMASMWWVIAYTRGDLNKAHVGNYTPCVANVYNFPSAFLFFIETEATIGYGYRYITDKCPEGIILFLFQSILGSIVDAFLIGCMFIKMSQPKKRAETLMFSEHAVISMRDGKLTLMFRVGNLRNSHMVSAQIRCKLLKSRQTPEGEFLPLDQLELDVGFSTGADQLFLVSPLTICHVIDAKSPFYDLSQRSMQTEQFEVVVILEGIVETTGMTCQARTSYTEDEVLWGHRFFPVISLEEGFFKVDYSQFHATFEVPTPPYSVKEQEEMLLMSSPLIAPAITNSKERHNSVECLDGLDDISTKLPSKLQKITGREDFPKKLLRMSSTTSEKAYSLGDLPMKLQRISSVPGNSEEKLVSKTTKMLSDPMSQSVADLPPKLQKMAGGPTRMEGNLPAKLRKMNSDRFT
T1 sequence (P48548 whole entry): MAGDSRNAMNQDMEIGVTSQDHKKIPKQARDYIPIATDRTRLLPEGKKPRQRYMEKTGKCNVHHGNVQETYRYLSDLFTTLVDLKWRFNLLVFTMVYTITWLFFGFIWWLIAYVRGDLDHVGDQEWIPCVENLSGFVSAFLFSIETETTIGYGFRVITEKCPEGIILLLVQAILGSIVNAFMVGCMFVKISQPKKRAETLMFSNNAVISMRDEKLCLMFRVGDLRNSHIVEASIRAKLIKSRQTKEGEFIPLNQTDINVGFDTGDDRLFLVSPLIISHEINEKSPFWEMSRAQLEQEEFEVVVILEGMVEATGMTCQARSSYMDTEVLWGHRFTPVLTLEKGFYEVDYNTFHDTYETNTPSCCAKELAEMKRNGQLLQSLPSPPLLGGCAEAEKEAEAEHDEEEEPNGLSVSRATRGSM

IC50 | SMILES
< 500 nM | CNC(=O)c1sc2[nH]nc(N3CCC(COCCN4CCCC4)CC3)c2c1-c1ccccc1
500 nM | CN(C)C(=O)c1sc2[nH]nc(N3CCC(COCCN4CCCC4)CC3)c2c1-c1ccccc1
500 nM | CN(C)C(=O)c1sc2c(c(N3CCC(COCCN4CCCC4)CC3)nn2C)c1-c1ccccc1
< 500 nM | c1ccc(-c2csc3[nH]nc(N4CC5CC4CC5OCCN4CCCC4)c23)cc1 (stereo not given)
< 500 nM | CC(C)NC(=O)c1sc2[nH]nc(N3CCC(COCCN4CCCC4)CC3)c2c1-c1ccccc1
< 500 nM | CC(=O)n1nc(N2CC3CC2CC3OCCN2CCCC2)c2c(-c3ccccc3)csc21 (stereo not given)
< 500 nM | N#Cc1sc2[nH]nc(N3CCC(COCCN4CCCC4)CC3)c2c1-c1ccccc1
< 500 nM | Brc1sc2[nH]nc(N3CC4CC3CC4OCCN3CCCC3)c2c1-c1ccccc1 (stereo not given)
< 500 nM | c1ccc(-c2csc3[nH]nc(N4CCC(COCCN5CCCC5)C4)c23)cc1 (stereo not given)
< 500 nM | Cn1nc(N2CCC(COCCN3CCCC3)CC2)c2c(-c3ccccc3)csc21
< 500 nM | CC(=O)n1nc(N2CCC(COCCN3CCCC3)C2)c2c(-c3ccccc3)csc21 (stereo not given)
< 500 nM | CC(=O)n1nc(N2CCC(COCCN3CCCC3)CC2)c2c(-c3ccccc3)csc21
< 500 nM | CS(=O)(=O)n1nc(N2CCC(COCCN3CCCC3)CC2)c2c(-c3ccccc3)csc21
< 500 nM | c1ccc(-c2csc3[nH]nc(N4CCCC(COCCN5CCCC5)C4)c23)cc1 (stereo not given)
< 500 nM | CS(=O)(=O)n1nc(N2CC3CC2CC3OCCN2CCCC2)c2c(-c3ccc(F)cc3)csc21 (stereo not given)
< 500 nM | Fc1ccc(-c2csc3[nH]nc(N4CC5CC4CC5OCCN4CCCC4)c23)cc1 (stereo not given)
< 500 nM | c1ccc(-c2csc3[nH]nc(N4CCC(COCCN5CCCC5)CC4)c23)cc1
< 500 nM | CC(=O)n1nc(N2CCCC(COCCN3CCCC3)C2)c2c(-c3ccccc3)csc21 (stereo not given)
< 500 nM | CC(=O)n1nc(N2CC3CC2CC3OCCN2CCCC2)c2c(-c3ccc(F)cc3)csc21 (stereo not given)

SMILES | IC50
c1ccc(-c2csc3[nH]nc(N4C5CCC4CC(COCCN4CCCC4)C5)c23)cc1 (stereo not given) | < 500 nM
c1ccc(-c2csc3[nH]nc(N4C5CCC4CC(NC4CCC4)C5)c23)cc1 (stereo not given) | < 500 nM
CC(C)NC1CC2CCC(C1)N2c1n[nH]c2scc(-c3ccccc3)c12 (stereo not given) | 500 nM
c1ccc(-c2csc3[nH]nc(N4C5CCC4CC(OCCN4CCCC4)C5)c23)cc1 (stereo not given) | < 500 nM
c1ccc(-c2csc3[nH]nc(N4C5CCC4CC(N4CCC4)C5)c23)cc1 (stereo not given) | 500 nM
CC(=O)n1nc(N2C3CCC2CC(OCCN2CCCC2)C3)c2c(-c3ccccc3)csc21 (stereo not given) | < 500 nM
